Values quoted from earlier work as cited in patent US20070009535A1 (priority 2005, published 2007).

Settings: several oncolytics tested in preclinical models

O[C@@H](COc1cccc2ncccc12)CN1CCN([C@@H]2c3ccccc3[C@@H]3[C@H](c4ccccc42)C3(F)F)CC1 [zosuquidar]
pharmacokinetic interactions with oncolytics: minimal pharmacokinetic (PK) interactions
